Source: US20210220314A1, “AMINO ACID COMPOSITION FOR ENABLING FULFILMENT OF THE AMINO ACID REQUIREMENTS OF A MONOGASTRIC ANIMAL SUCH AS A HUMAN OR A PIG” (VETAGRO INTERNATIONAL S.R.L., priority 2018, published 2021)

Settings: pig, in vivo, po

| Compound | presence of marker in the content of different sections of the gastrointestinal tract |
| --- | --- |
| C/C=C/C=C/C(=O)O [sorbic acid] | present in the different intestinal sections only when administered in encapsulated form in the lipid matrix |
| COc1cc(C=O)ccc1O [vanillin] | present in the different intestinal sections only when administered in encapsulated form in the lipid matrix |
